Data: US11566057B2, “Long-acting co-agonists of the glucagon and GLP-1 receptors” (Merck Sharp & Dohme Corp., priority 2017, dated 2023)
Numbered stars: 1 amine (or outer) side, 2 acyl side, 3 side chain; on linkers, the order of the positions; unused ones are H or OH. Square brackets hold non-standard residues; d marks the D form. Side chains are listed from the residue outwards. Peptide text beside a SMILES is read from it. * marks the point of attachment. C20 diacid = O=C(O)CCCCCCCCCCCCCCCCCCC(=O)*; Phe(4-CH2NH2) = NCc1ccc(C[C@H](N)C(=O)O)cc1; C18 diacid = O=C(O)CCCCCCCCCCCCCCCCC(=O)*; γGlu = O=C(O)[C@H](CCC(=O)[*:2])N[*:1]; Met(O2) = CS(=O)(=O)CC[C@H](N)C(=O)O; αMeD = C[C@](N)(CC(=O)O)C(=O)O; AEEA = NCCOCCOCC(=O)O; Aib = CC(C)(N)C(=O)O

The molecules below were run against T1, human GCGR (Homo sapiens, UniProt P47871) (assay: cAMP activity assay at the Glucagon receptor (GCGR)). Details: cells expressing human GCGR, cAMP production; buffer with or without 20% human serum (not stated which); read-out: GCGR EC50 human.
T1 construct: expressed in transfected cells; growth medium holds Blasticidin and Hygromycin
Assay type: cell-based
Description: Activity of the peptides at the Glucagon receptor (GCGR) and GLP-1 receptor (GLP1R) was measured in a cAMP activity assay.
GCG/GLP-1 receptor co-agonist peptides were dissolved in 100% DMSO (dimethyl sulfoxide) and serially diluted to generate 10 point titrations. The peptide solutions were then transferred into 384-well assay plates (150 nL/well). Assay ready frozen cells expressing human GLP1R or human GCGR were suspended in growth media consisting of DMEM medium (GIBCO®), 10% FBS (GIBCO®), 1×NEAA(GIBCO®), 1×P/S (GIBCO®), 10 ug/mL Blasticidin (GIBCO®) and 200 μg/mL Hygromycin (GIBCO®). […] The cell suspensions (15 μL) were then added to the assay plates containing the peptide solutions (30,000 cells/well for human GCGR; 10,000 cells/well for human GLP1R). The cells were incubated for 1 hour at room temperature in the dark. Production of cAMP was determined using HitHunter™ cAMPXS kits (DiscoverX) following manufacturer protocol. The plates were incubated for overnight at room temperature in the dark. Luminescence was measured using an EnVision Multilabel plate reader (Perkin Elmer). Native GLP-1 and Glucagon (Bachem) are used as control peptides. EC50 values were calculated using uses a 4 parameter logistic fit based on the Levenberg-Marquardt algorithm.

T1 sequence (P47871 26-477): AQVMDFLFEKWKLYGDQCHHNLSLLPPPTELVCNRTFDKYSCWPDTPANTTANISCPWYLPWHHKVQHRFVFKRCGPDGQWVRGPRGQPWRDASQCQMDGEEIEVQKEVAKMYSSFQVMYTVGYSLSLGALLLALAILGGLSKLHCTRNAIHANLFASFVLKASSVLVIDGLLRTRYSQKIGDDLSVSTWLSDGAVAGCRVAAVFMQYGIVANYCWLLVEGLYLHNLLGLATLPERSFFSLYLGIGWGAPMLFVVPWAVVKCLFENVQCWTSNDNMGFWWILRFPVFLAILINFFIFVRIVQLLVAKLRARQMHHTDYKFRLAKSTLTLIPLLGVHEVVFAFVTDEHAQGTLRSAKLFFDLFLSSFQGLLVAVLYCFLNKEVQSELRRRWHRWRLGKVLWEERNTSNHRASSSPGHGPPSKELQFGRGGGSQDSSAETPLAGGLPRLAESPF

EC50 | Molecule
0.86 nM | CC(C)C[C@H](NC(=O)[C@H](Cc1ccc(O)cc1)NC(=O)[C@H](CCCCN)NC(=O)[C@H](CO)NC(=O)[C@H](Cc1ccc(O)cc1)NC(=O)[C@H](CC(=O)O)NC(=O)[C@H](CO)NC(=O)[C@@H](NC(=O)[C@H](Cc1ccccc1)NC(=O)[C@@H](NC(=O)CNC(=O)[C@H](CCC(N)=O)NC(=O)C(C)(C)NC(=O)[C@@H](N)Cc1c[nH]cn1)[C@@H](C)O)[C@@H](C)O)C(=O)N[C@@H](CC(=O)O)C(=O)N[C@@H](C)C(=O)N[C@@H](CCCNC(=N)N)C(=O)N[C@@H](C)C(=O)N[C@@H](C)C(=O)N[C@@H](CCCCNC(=O)COCCOCCNC(=O)CC[C@H](NC(=O)CCCCCCCCCCCCCCCCC(=O)O)C(=O)O)C(=O)N[C@@H](CC(=O)O)C(=O)N[C@@H](Cc1ccccc1)C(=O)N[C@H](C(=O)N[C@@H](CCC(N)=O)C(=O)N[C@@H](Cc1c[nH]c2ccccc12)C(=O)N[C@@H](CC(C)C)C(=O)N[C@@H](CCS(C)(=O)=O)C(=O)N[C@@](C)(CC(=O)O)C(=O)N[C@H](C(N)=O)[C@@H](C)O)C(C)C [TP628] (H-H[Aib]QGTFTSDYSKYLDARAAK([AEEA-γGlu-C18 diacid])DFVQWL[Met(O2)][αMeD]T-NH2; N-terminus assumed)

Same assay, conditions: ratio of GCGR EC50 to GLP1R EC50

hGCGR/hGLP1R (hTone) | Molecule
2.9 | CC(C)C[C@H](NC(=O)[C@H](CC(C)C)NC(=O)[C@H](Cc1c[nH]c2ccccc12)NC(=O)[C@H](CCC(N)=O)NC(=O)[C@@H](NC(=O)[C@H](Cc1ccccc1)NC(=O)[C@H](CC(=O)O)NC(=O)[C@H](CCC(N)=O)NC(=O)[C@H](C)NC(=O)[C@H](C)NC(=O)[C@H](CCCNC(=N)N)NC(=O)C(C)(C)NC(=O)[C@H](CC(=O)O)NC(=O)[C@H](CC(C)C)NC(=O)[C@H](Cc1ccc(O)cc1)NC(=O)[C@H](CCCCN)NC(=O)[C@H](CO)NC(=O)[C@H](Cc1ccc(CNC(=O)COCCOCCNC(=O)COCCOCCNC(=O)CC[C@H](NC(=O)CCCCCCCCCCCCCCCCCCC(=O)O)C(=O)O)cc1)NC(=O)[C@H](CC(=O)O)NC(=O)[C@H](CO)NC(=O)[C@@H](NC(=O)[C@H](Cc1ccccc1)NC(=O)[C@@H](NC(=O)CNC(=O)[C@H](CCC(N)=O)NC(=O)C(C)(C)NC(=O)[C@@H](N)Cc1c[nH]cn1)[C@@H](C)O)[C@@H](C)O)C(C)C)C(=O)N[C@@H](C)C(=O)N[C@H](C(=O)N[C@@H](CCCCNC(=O)CC[C@H](N)C(=O)O)C(N)=O)[C@@H](C)O [TP581] (H-H[Aib]QGTFTSD[Phe(4-CH2NH2)]([AEEA-AEEA-γGlu-C20 diacid])SKYLD[Aib]RAAQDFVQWLLATK(γGlu)-NH2; N-terminus assumed)
0.7 | CC(C)C[C@H](NC(=O)[C@H](Cc1c[nH]c2ccccc12)NC(=O)[C@H](CCCCNC(=O)COCCOCCNC(=O)COCCOCCNC(=O)CC[C@H](NC(=O)CCCCCCCCCCCCCCCCC(=O)O)C(=O)O)NC(=O)[C@@H](NC(=O)[C@H](Cc1ccccc1)NC(=O)[C@H](CC(=O)O)NC(=O)[C@H](CCC(N)=O)NC(=O)[C@H](C)NC(=O)[C@H](C)NC(=O)[C@H](CCCNC(=N)N)NC(=O)C(C)(C)NC(=O)[C@H](CC(=O)O)NC(=O)[C@H](CC(C)C)NC(=O)[C@H](Cc1ccc(O)cc1)NC(=O)[C@H](CCCCN)NC(=O)[C@H](CO)NC(=O)[C@H](Cc1ccc(O)cc1)NC(=O)[C@H](CC(=O)O)NC(=O)[C@H](CO)NC(=O)[C@@H](NC(=O)[C@H](Cc1ccccc1)NC(=O)[C@@H](NC(=O)CNC(=O)[C@H](CCC(N)=O)NC(=O)C(C)(C)NC(=O)[C@@H](N)Cc1c[nH]cn1)[C@@H](C)O)[C@@H](C)O)C(C)C)C(=O)N[C@@H](CCS(C)(=O)=O)C(=O)N[C@@H](CC(=O)O)C(=O)N[C@H](C(N)=O)[C@@H](C)O [TP575] (H-H[Aib]QGTFTSDYSKYLD[Aib]RAAQDFVK([AEEA-AEEA-γGlu-C18 diacid])WL[Met(O2)]DT-NH2; N-terminus assumed)
1.66 | HsQGTFTSDNle(1,2,3-triazole-4-C4-Lys-C16)SKYLDARAAQDFVQWLLDT-NH2 (HXQGTFTSDXSKYLDARAAQDFVQWLLDT; D-Ser, Nle-triazole-C4-Lys-C16 lipid; C-terminal amide; peptide TP831; (2)..(2) Xaa is D-Serine; (10)..(10) Xaa is Nle(1,2,3-triazole-4-C4-Lys-C16); (29)..(29) Xaa is C-terminal amide)
0.6 | CC(C)C[C@H](NC(=O)[C@H](Cc1ccc(O)cc1)NC(=O)[C@H](CCCCN)NC(=O)[C@H](CO)NC(=O)[C@H](Cc1ccc(O)cc1)NC(=O)[C@H](CC(=O)O)NC(=O)[C@H](CO)NC(=O)[C@@H](NC(=O)[C@H](Cc1ccccc1)NC(=O)[C@@H](NC(=O)CNC(=O)[C@H](CCC(N)=O)NC(=O)C(C)(C)NC(=O)[C@@H](N)Cc1c[nH]cn1)[C@@H](C)O)[C@@H](C)O)C(=O)N[C@@H](CC(=O)O)C(=O)N[C@@H](C)C(=O)N[C@@H](CCCNC(=N)N)C(=O)N[C@@H](C)C(=O)N[C@@H](C)C(=O)N[C@@H](CCCCNC(=O)COCCOCCNC(=O)CC[C@H](NC(=O)CCCCCCCCCCCCCCCCC(=O)O)C(=O)O)C(=O)N[C@@H](CC(=O)O)C(=O)N[C@@H](Cc1ccccc1)C(=O)N[C@H](C(=O)N[C@@H](CCC(N)=O)C(=O)N[C@@H](Cc1c[nH]c2ccccc12)C(=O)N[C@@H](CC(C)C)C(=O)N[C@@H](CCS(C)(=O)=O)C(=O)N[C@@](C)(CC(=O)O)C(=O)N[C@H](C(N)=O)[C@@H](C)O)C(C)C [TP628] (H-H[Aib]QGTFTSDYSKYLDARAAK([AEEA-γGlu-C18 diacid])DFVQWL[Met(O2)][αMeD]T-NH2; N-terminus assumed)
